Data: patent US20210254056A1, “IDENTIFICATION AND TARGETED MODULATION OF GENE SIGNALING NETWORKS” (CAMP4 THERAPEUTICS CORPORATION, priority 2017, published 2021)

Tested on: hepatocytes
Assay: RNA-seq of hepatocytes treated with Phase III failure compounds
Description: RNA-seq was performed to determine the effects of the compounds on hepatocytes.
Significance was determined by the criteria of FPKM≥0.5, a log 2(fold-change)≥1, and a […].

CCOC(=O)N1c2ccc(C(F)(F)F)cc2[C@@H](N(Cc2cc(C(F)(F)F)cc(C(F)(F)F)c2)C(=O)OC)C[C@H]1CC [Torcetrapib]
RNA-seq results, CYP2B6 expression: 0.36
RNA-seq results, CYP2C19 expression: 0.61
RNA-seq results, CYP2D6 expression: −0.16
RNA-seq results, CYP3A4 expression: 1.87
RNA-seq results, CYP7B1 expression: 0.26
RNA-seq results, CYP39A1 expression: 0.03
RNA-seq results: CYP2B6 expression: 0.09
RNA-seq results: CYP2C19 expression: −0.14
RNA-seq results: CYP2D6 expression: 0.24
RNA-seq results: CYP3A4 expression: 0.49
RNA-seq results: CYP7B1 expression: −0.44
RNA-seq results: CYP39A1 expression: 0
significant modulation of expression of disease genes (RNA-seq, q≤0.05, hepatocytes, genes in the value or listed in the block): significantly (q≤0.05) modulate expression of the following genes: ACTG2, CYP3A4, ID1, KMT2D, and UTRN
RNA-seq results: A1BG expression (gene A1BG, hepatocytes): −0.38
RNA-seq results: AGTR1 expression (gene AGTR1, hepatocytes): −0.45
RNA-seq results: AGXT expression (gene AGXT, hepatocytes): −0.25
RNA-seq results: AHI1 expression (gene AHI1, hepatocytes): 0.19
RNA-seq results: AMPD3 expression (gene AMPD3, hepatocytes): 0.28
RNA-seq results: AMT expression (gene AMT, hepatocytes): −0.11
RNA-seq results: ANGPTL3 expression (gene ANGPTL3, hepatocytes): −0.46
RNA-seq results: ANKS4B expression (gene ANKS4B, hepatocytes): −0.02
RNA-seq results: ANKS6 expression (gene ANKS6, hepatocytes): 0.19
RNA-seq results: ANPEP expression (gene ANPEP, hepatocytes): −0.19
RNA-seq results: AOC2 expression (gene AOC2, hepatocytes): 0.53
RNA-seq results: APOA2 expression (gene APOA2, hepatocytes): −0.76
RNA-seq results: APOA5 expression (gene APOA5, hepatocytes): −0.36
RNA-seq results: APOB expression (gene APOB, hepatocytes): 0.90
RNA-seq results: COG5 expression (gene COG5, hepatocytes): 0.24
RNA-seq results: COG6 expression (gene COG6, hepatocytes): 0.29
RNA-seq results: COL1A1 expression (gene COL1A1, hepatocytes): −0.43
RNA-seq results: COX6A1 expression (gene COX6A1, hepatocytes): 0.62
RNA-seq results: CP expression (gene CP, hepatocytes): −0.27
RNA-seq results: CPS1 expression (gene CPS1, hepatocytes): −0.75
RNA-seq results: CPT1A expression (gene CPT1A, hepatocytes): −0.4
RNA-seq results: CPT2 expression (gene CPT2, hepatocytes): −0.1
RNA-seq results: CROT expression (gene CROT, hepatocytes): −0.33
RNA-seq results: CSPP1 expression (gene CSPP1, hepatocytes): 0.17
RNA-seq results: CTC1 expression (gene CTC1, hepatocytes): −0.2
RNA-seq results: CTDSP2 expression (gene CTDSP2, hepatocytes): 0.03
RNA-seq results: CTH expression (gene CTH, hepatocytes): 2.52
RNA-seq results: CTNS expression (gene CTNS, hepatocytes): −0.12
RNA-seq results: CTSF expression (gene CTSF, hepatocytes): 0.3
RNA-seq results: CTSK expression (gene CTSK, hepatocytes): 0
RNA-seq results: CYB5A expression (gene CYB5A, hepatocytes): 0.21
RNA-seq results: CYB5R3 expression (gene CYB5R3, hepatocytes): 0.07
RNA-seq results: CYP27A1 expression (gene CYP27A1, hepatocytes): 0.12
RNA-seq results: DAO expression (gene DAO, hepatocytes): −0.72
RNA-seq results: DBT expression (gene DBT, hepatocytes): 0
RNA-seq results: DCDC2 expression (gene DCDC2, hepatocytes): −0.51
RNA-seq results: DCXR expression (gene DCXR, hepatocytes): 0.37
RNA-seq results: FABP1 expression (gene FABP1, hepatocytes): 0.58
RNA-seq results: FADD expression (gene FADD, hepatocytes): 0.43
RNA-seq results: FAM111A expression (gene FAM111A, hepatocytes): −0.26
RNA-seq results: FAM111B expression (gene FAM111B, hepatocytes): −1.74
RNA-seq results: FAN1 expression (gene FAN1, hepatocytes): 0.14
RNA-seq results: FARS2 expression (gene FARS2, hepatocytes): 0.06
RNA-seq results: FASLG expression (gene FASLG, hepatocytes): −1.19
RNA-seq results: FGA expression (gene FGA, hepatocytes): −0.25
RNA-seq results: FGD1 expression (gene FGD1, hepatocytes): −0.63
RNA-seq results: FGFR2 expression (gene FGFR2, hepatocytes): 0.15
RNA-seq results: FIG4 expression (gene FIG4, hepatocytes): 0
RNA-seq results: FIS1 expression (gene FIS1, hepatocytes): 0.52
RNA-seq results: FTCD expression (gene FTCD, hepatocytes): −0.05
RNA-seq results: FTH1 expression (gene FTH1, hepatocytes): 0.6
RNA-seq results: FUCA1 expression (gene FUCA1, hepatocytes): 0.01
RNA-seq results: FXN expression (gene FXN, hepatocytes): −0.17
RNA-seq results: G6PC3 expression (gene G6PC3, hepatocytes): −0.07
RNA-seq results: G6PC expression (gene G6PC, hepatocytes): −0.17
RNA-seq results: G6PD expression (gene G6PD, hepatocytes): −0.05
RNA-seq results: GALK1 expression (gene GALK1, hepatocytes): 0.4
RNA-seq results: GALK2 expression (gene GALK2, hepatocytes): 0.22
RNA-seq results: GALT expression (gene GALT, hepatocytes): −0.21
RNA-seq results: GATA6 expression (gene GATA6, hepatocytes): 0.17
RNA-seq results: GATM expression (gene GATM, hepatocytes): −0.33
RNA-seq results: GBA expression (gene GBA, hepatocytes): −0.07
RNA-seq results: GBE1 expression (gene GBE1, hepatocytes): 0.39
RNA-seq results: GCH1 expression (gene GCH1, hepatocytes): 0.23
RNA-seq results: GCKR expression (gene GCKR, hepatocytes): −0.19
RNA-seq results: GCLC expression (gene GCLC, hepatocytes): 0.13
RNA-seq results: GOSH expression (gene GOSH, hepatocytes): 0.22
RNA-seq results: RRM2B (gene RRM2B, hepatocytes): 0.48
RNA-seq results: RSAD1 (gene RSAD1, hepatocytes): −0.11
RNA-seq results: SAMHD1 (gene SAMHD1, hepatocytes): 0.25
RNA-seq results: SC5D (gene SC5D, hepatocytes): −0.01
RNA-seq results: SCARB1 (gene SCARB1, hepatocytes): −0.17
RNA-seq results: SCN9A (gene SCN9A, hepatocytes): 0.25
RNA-seq results: SDCCAG8 (gene SDCCAG8, hepatocytes): −0.03
RNA-seq results: SEPN1 (gene SEPN1, hepatocytes): 0.28
RNA-seq results: SERAC1 (gene SERAC1, hepatocytes): 0.29
RNA-seq results: SERPINA1 (gene SERPINA1, hepatocytes): −0.19
RNA-seq results: SERPING1 (gene SERPING1, hepatocytes): −0.11
RNA-seq results: SERPINI1 (gene SERPINI1, hepatocytes): −0.19
RNA-seq results: SETBP1 (gene SETBP1, hepatocytes): −0.14
RNA-seq results: SFXN4 (gene SFXN4, hepatocytes): −0.46
RNA-seq results: SLC10A1 (gene SLC10A1, hepatocytes): −0.03
RNA-seq results: SLC10A3 (gene SLC10A3, hepatocytes): 0.11
RNA-seq results: SLC10A5 (gene SLC10A5, hepatocytes): 0.18
RNA-seq results: SLC10A7 (gene SLC10A7, hepatocytes): 0.23
RNA-seq results: SLC11A2 (gene SLC11A2, hepatocytes): 0.32
RNA-seq results: SLC19A1 (gene SLC19A1, hepatocytes): −0.21
RNA-seq results: SLC19A2 (gene SLC19A2, hepatocytes): 0.32
RNA-seq results: SLC19A3 (gene SLC19A3, hepatocytes): −0.31
RNA-seq results: SLC22A1 (gene SLC22A1, hepatocytes): −0.22
RNA-seq results: SLC22A5 (gene SLC22A5, hepatocytes): −0.06
RNA-seq results: SLC25A1 (gene SLC25A1, hepatocytes): −0.33
RNA-seq results: SLC25A10 (gene SLC25A10, hepatocytes): −0.31
RNA-seq results: SLC25A12 (gene SLC25A12, hepatocytes): −0.27
RNA-seq results: SLC25A13 (gene SLC25A13, hepatocytes): 0.25
RNA-seq results: SLC25A15 (gene SLC25A15, hepatocytes): −0.09
RNA-seq results: SLC25A19 (gene SLC25A19, hepatocytes): −0.43
RNA-seq results: SLC25A20 (gene SLC25A20, hepatocytes): −0.35
RNA-seq results: SLC25A29 (gene SLC25A29, hepatocytes): −0.13
RNA-seq results: SLC25A32 (gene SLC25A32, hepatocytes): −0.10
